Measured values reported in patent US20240279304A1, “DSG2 COMPOSITIONS AND METHODS” (Arvada Therapeutics, Inc., priority 2021, published 2024).
Entries after “also recorded” stand apart in the source; their conditions may differ.

Key:
[1] = tested on: ARVC serum (anti-DSG2 antibodies in serum obtained from ARVC patients); assay: anti-DSG2 antibody MSD assay, blocking of ARVC patient serum; assay type: binding, human; set-up: % inhibition: concentration or dose not given beside the values; conditions: for % inhibition: fraction C (table title)
Method: The DSG2 fusion polypeptides were tested for the ability to block anti-DSG2 antibody by an anti-DSG2 antibody meso scale discovery (MSD) assay. […] The DSG2 fusion polypeptides were subjected to size exclusion chromatography and different elution fractions were examined. […] As shown in Table 7 and FIG. 1B, FIG. 1C, and FIG. 1D, enriching for fraction C improved the ability of the DSG2 fusion polypeptides to block ARVC patient serum.
ARVC diagnosis is based on complex tool known as Task Force Criteria, which can lead to varying levels of conviction about ARVC diagnosis. The utility of DSG2 antibodies as an indicator of ARVC disease state and severity was explored. Approximately 50 cc serum was collected from diagnosed ARVC patients. A total of 10 ARVC patients and 5 healthy controls were used for the analysis. ARVC serum samples were separated into more robust diagnosis and less robust diagnosis, based on available data in the patient medical records and anti-DSG2 antibody levels were compared using an anti-DSG2 antibody meso scale discovery (MSD)-based assay.

[2] = tested on: human iPSC-derived cardiomyocytes; assay: CiPA multielectrode array (MEA) assay, cell index; assay type: cell-based
Method: To determine the effect of anti-DSG2 antibodies in cardiomyocytes, the cardiac in vitro proarrhythmia (CiPA) assay was performed (Sager et al. Am Heart J 2014; 167:292-300; the contents of which are herein incorporated by reference in its entirety). CiPA is envisioned to consist of four components: (1) an evaluation of the effects of test agents on cardiac ion channel assays; (2) in silico modeling of the cardiac action potential based on the ion channel results to integrate the data with cardiac function; (3) experimental measurement of test agent effects in human ventricular myocytes to confirm the modeling result; and (4) scoring the results. The multielectrode array (MEA) assay is a component of CiPA which uses human induced pluripotent stem cell (iPSC)-derived cardiomyocytes to evaluate two-dimensional excitation propagation by recording spontaneous ECG-like field potentials. The sodium spike quantified below is a measurement of the specific sodium channel current in the cardiomyocyte and is also described in Blinova K, et al. Cell Rep. 2018 Sep. 25; 24(13):3582-3592 (the contents of which are herein incorporated by reference in its entirety). CiPA is considered a clinically validated cardiomyocyte-based assay by the FDA and the EMA. […] The parameters evaluated include measuring a change in the spike in the component of electrical signal propagation (e.g. sodium spike) and cell index—a function of cell impedance and cell number. Changes in sodium spike may be indicative of arrhythmia and a change in cell index (CI) may be indicative of changes to cell connectivity.
Cell index is inversely related the cell layer's conductivity to electrical current. Increased conductivity across the cell layer, may indicate that there are more gaps in the cell layer, implying that the cells are less well-adhered to each other. Thus, increased conductivity across the cell layer, may result in lower cell index. […] The concentration of anti-DSG2 antibodies varied from 0.00005 μg/mL to 5 μg/mL. […] The concentration of lidocaine varied from 3 μM to 100 μM. […] The concentration of anti-DSG2 antibodies varied from 0.00005 μg/mL to 5 μg/mL.

[3] = Dynamic light scattering (DLS) of DSG2 fusion polypeptides; assay type: physicochemical; conditions: average polymer distribution index
Excerpt: 6 candidates were compared to the reference sample.

DSG2FP#1: R&D Systems DSG2 extracellular domain (49-608 of SEQ ID NO: 30); linker IEGRMD; amino acids 100-330 of IgG1
ability to bind and block ARVC serum (in words) [1]: able to bind and block anti-DSG2 antibody as well as serum obtained from ARVC patients | blocking of assay signal from ARVC patient serum samples with strong clinical data (in words) ([1]; Example 3, competing DSG2 polypeptide added): could also be blocked | % inhibition ([1]; sample: ARVC serum 1): 96.7% | % inhibition ([1]; sample: ARVC serum 2): 82.9% | % inhibition ([1]; sample: ARVC serum 3): 95.8% | % inhibition ([1]; sample: ARVC serum 4): 95.7% | % inhibition ([1]; sample: ARVC serum 5): 93.1% | reversal of effects of anti-DSG2 antibodies on cell index (in words) [2]: reversed; also recorded: completely blocks the effect of the anti-DSG2 antibodies | Cell Index (+/- SEM) ([2]; added with Anti-DSG2 antibody (0.00005 μg/mL)): 22.4 (1.9) | Cell Index (+/- SEM) ([2]; added with Anti-DSG2 antibody (0.0005 μg/mL)): 22.4 (1.1) | Cell Index (+/- SEM) ([2]; added with Anti-DSG2 antibody (0.005 μg/mL)): 20.4 (0.5) | Cell Index (+/- SEM) ([2]; added with Anti-DSG2 antibody (0.05 μg/mL)): 21.6 (0.4) | Cell Index (+/- SEM) ([2]; added with Anti-DSG2 antibody (0.5 μg/mL)): 22.0 (0.8) | Cell Index (+/- SEM) ([2]; added with Anti-DSG2 antibody (5 μg/mL)): 24.1 (0.5) | Cell Index (+/- SEM) ([2]; added with Anti-VCAM1 antibody (0.00005 μg/mL)): 23.2 (0.7) | Cell Index (+/- SEM) ([2]; added with Anti-VCAM1 antibody (0.0005 μg/mL)): 22.0 (0.5) | Cell Index (+/- SEM) ([2]; added with Anti-VCAM1 antibody (0.005 μg/mL)): 21.0 (0.5) | Cell Index (+/- SEM) ([2]; added with Anti-VCAM1 antibody (0.05 μg/mL)): 21.0 (0.4) | Cell Index (+/- SEM) ([2]; added with Anti-VCAM1 antibody (0.5 μg/mL)): 21.8 (0.5) | Cell Index (+/- SEM) ([2]; added with Anti-VCAM1 antibody (5 μg/mL)): 24.6 (0.5) | Cell Index (+/- SEM) ([2]; added with Rabbit IgG (0.00005 μg/mL)): 22.5 (1.7) | Cell Index (+/- SEM) ([2]; added with Rabbit IgG (0.0005 μg/mL)): 22.4 (1.3) | Cell Index (+/- SEM) ([2]; added with Rabbit IgG (0.005 μg/mL)): 21.0 (0.8) | Cell Index (+/- SEM) ([2]; added with Rabbit IgG (0.05 μg/mL)): 21.3 (0.4) | Cell Index (+/- SEM) ([2]; added with Rabbit IgG (0.5 μg/mL)): 21.1 (0.4) | Cell Index (+/- SEM) ([2]; added with Rabbit IgG (5 μg/mL)): 24.2 (0.5) | PDI [3]: 0.33
